Data from patent US8709405B2, “Cancer vaccines containing epitopes of oncofetal antigen” (South Alabama Medical Science Foundation, priority 2002, dated 2014).

Legend:
Assay type in all cases: cell-based, BALB/c mouse
[1] = tested on: iLRP-specific T cell clone H3 (Th1); assay: BUdR incorporation ELISA proliferation assay, Th1 clone H3; details: for BudR Incorporation (A450), T cell clone H3 (Th1): Table 8, overlapping 12-mers of iLRP 136-166, 100 U/ml IL-2; for Response of Th1 clone H3 (in words): text on Table 8
Description: (§1) The epitopes recognized by 15 iLRP-reactive T cell clones derived from either naive BALB/c mice, BALB/c mice bearing MCA1315 fibrosarcoma tumors, or from BALB/c mice immunized with either 1 or 10 μg of recombinant murine iLRP were determined by testing the proliferation of those clones to overlapping peptides spanning the region of the iLRP molecule recognized by each clone in the presence of IL-2, as a growth factor for T cells and irradiated, T cell-depleted, syngeneic spleen cells as antigen-presenting cells. Proliferation was measured through ELISA determination of 5-bromodeoxyuridine incorporation during culture.
(§2) More specifically, the epitope-specificity of the iLRP-specific Th1, Tc, and Ts clones was determined using a modification of the 5′-bromodeoxyuridine (BudR) incorporation ELISA technique described in Rohrer, J. W., A. L. Barsoum, D. L. Dyess, J. A. Tucker, and J. H. Coggin, Jr. 1999. Human breast carcinoma patients develop clonable oncofetal antigen-specific effector and regulatory T lymphocytes. J. Immunol. 162:6880, using the Biotrak BUdR incorporation assay (Amersham, Arlington Heights, Ill.). Briefly, at the time of restimulation of the clones, a portion of the cloned T cells were assayed for proliferation to antigen-presenting cells (APC) and various iLRP peptides. The assay was performed with 10,000 viable cloned T cells/well plus […] irradiated syngeneic spleen cells (APC) plus 100 ng/well of intact iLRP/OFA protein or the various truncated iLRP/OFA proteins or the various iLRP/OFA peptides in Iscove's modified Dulbecco's medium (IMDM) containing 2 mM L-glutamine, 100 U/ml of penicillin G, 100 μg of streptomycin sulfate, and 10% fetal calf serum. The cells were cultured for a total of 48 hours. After 24 hours of culture 5′-bromodeoxyuridine was added to a final concentration of 10 μM/well. The cells were cultured for another 24 hours. At the end of the last 24 hours of incubation, the plates were centrifuged at 300×g for 10 min, and the labelling medium removed. The cells were then dried at 60° C. for 1 hour. The cells were fixed with an ethanol fixative provided in the Biotrak kit for 30 min at room temperature, fixative was removed, and the wells were coated with blocking buffer (1% protein in 50 mM Tris-HCl, 150 mM NaCl, pH 7.4) and incubated for 30 min at room temperature. The blocking buffer was removed, 100 μl of 1:100 diluted peroxidase-labelled anti-BUdR antibody was added to each well and the plates were incubated for 90 min at room temperature. The antibody solution was removed, and the wells washed three times with 300 μl/well of wash buffer. 200 μl of 3,3′, 5,5′-tetramethylbenzidine in […] DMSO was added to each well and the plate was covered and incubated at room temperature while oscillating gently for 5-30 min. When the required color density was reached, the reaction was stopped by adding 25 μl of 1M sulfuric acid to each well and the plate read on a microELISA reader at 450 nm.
(§3) Each time the assay was done, clones were stimulated by APC and intact iLRP/OFA as a positive control. Cloned T cells were also cultured in the presence of only APC in IMDM or in the presence of APC and an iLRP/OFA peptide or truncated iLRP/OFA known not to stimulate the clones being tested. These served as negative controls. In wells where BUdR was incorporated (the iLRP/OFA stimulates proliferation of the T cells), the A450 was at least 10-fold and often approximately 50-fold higher than the negative controls. Because the Ts cells always presented with apparently low affinity T cell antigen receptors, their BUdR incorporation gave A450 values about 10 times higher than the negative controls (e.g., about 0.2 vs. 0.02), but about 5 times lower than the Th1 or Tc clones (e.g., usually about 0.9). […]

[2] = tested on: iLRP-specific T cell clone H2 (Ts); assay: BUdR incorporation ELISA proliferation assay, Ts clone H2; details: for BudR Incorporation (A450), T cell clone H2 (Ts): Table 8, overlapping 12-mers of iLRP 136-166, 100 U/ml IL-2; for Proliferation of Ts clone H2 (in words): text on Table 8
Description: as §1, §2, §3

[3] = tested on: iLRP-specific T cell clone H4 (Ts); assay: BUdR incorporation ELISA proliferation assay, Ts clone H4; details: for BudR Incorporation (A450), T cell clone H4 (Ts): Table 8, overlapping 12-mers of iLRP 136-166, 100 U/ml IL-2; for Proliferation of Ts clone H4 (in words): text on Table 8
Description: as §1, §2, §3

[4] = tested on: iLRP-specific T cell clone L4 (Tc); assay: BUdR incorporation ELISA proliferation assay, Tc clone L4; details: for BudR Incorporation (A450), T cell clone L4 (Tc): Table 8, overlapping 12-mers of iLRP 136-166, 100 U/ml IL-2; for Proliferation of Tc clone L4 (in words): text on Table 8
Description: as §1, §2, §3

[5] = tested on: iLRP-specific T cell clone L5 (Tc); assay: BUdR incorporation ELISA proliferation assay, Tc clone L5; details: for BudR Incorporation (A450), T cell clone L5 (Tc): Table 8, overlapping 12-mers of iLRP 136-166, 100 U/ml IL-2; for Proliferative response of Tc clone L5 (in words): text on Table 8
Description: as §1, §2, §3

[6] = tested on: iLRP-specific Th1, Tc, and Ts clones; assay: BUdR incorporation proliferation assay, comparison across iLRP-specific T cell clone types; details: Table 14; type of T cell clone reactive with the 12-mer
Description: as §1, §2
(§4) Each time the assay was done, clones were stimulated by APC and intact iLRP/OFA as a positive control. Cloned T cells were also cultured in the presence of only APC in IMDM or in the presence of APC and an iLRP/OFA peptide or truncated iLRP/OFA known not to stimulate the clones being tested. These served as negative controls. In wells where BUdR was incorporated (the iLRP/OFA stimulates proliferation of the T cells), the A450 was at least 10-fold and often approximately 50-fold higher than the negative controls. Because the Ts cells always presented with apparently low affinity T cell antigen receptors, their BUdR incorporation gave A450 values about 10 times higher than the negative controls (e.g., about 0.2 vs. 0.02), but about 5 times lower than the Th1 or Tc clones (e.g., usually about 0.9).
Determination of the portion of the truncated iLRP/OFA protein or peptide reacted to by a given clone was done by analysis of the proliferation pattern to the various truncated proteins or peptides. […]

[7] = tested on: iLRP-specific T cell clone L1 (CD8 Ts); assay: BUdR incorporation ELISA proliferation assay, Ts clone L1; details: Table 3; for BUdR Incorporation (A450) of iLRP-specific T cell clone L1 cells, Expt. 1 / BUdR Incorporation (A450) of iLRP-specific T cell clone L1 cells, Expt. 2: 100 ng/well stimulant with irradiated syngeneic spleen cells (APC), 48 h culture
Description: as §1, §2, §4
Overlapping 12mer peptides of the first 25 amino acids of murine iLRP were produced. Thus, peptides 1-4 corresponded to amino acid residues 1-12, 5-16, 9-20 and 17-28 of murine iLRP. […]

[8] = Table 7, stimulated by a.a.'s 136-166 sequence or controls

Row | Substance | BudR Incorporation (A450), T cell clone H3 (Th1) [1] | BudR Incorporation (A450), T cell clone H2 (Ts) [2] | BudR Incorporation (A450), T cell clone H4 (Ts) [3] | BudR Incorporation (A450), T cell clone L4 (Tc) [4] | BudR Incorporation (A450), T cell clone L5 (Tc) [5] | Reactive T cell clones [6] | BUdR Incorporation (A450) of iLRP-specific T cell clone L1 cells, Expt. 1 [7] | BUdR Incorporation (A450) of iLRP-specific T cell clone L1 cells, Expt. 2 [7] | also measured
1 | CNTDSPLRYVDI [Peptide 31-4] | .81 A450 | .016 A450 | .016 A450 | .023 A450 | .89 A450 | Tc & TH1 |  |  | Response of Th1 clone H3 (in words) [1]: slightly lower response; Proliferative response of Tc clone L5 (in words) [5]: equal proliferative response
2 | EASYVNLPTIAL [Peptide 31-1] | .016 A450 | .23 A450 | .22 A450 | .015 A450 | .017 A450 | Ts |  |  | Proliferation of Ts clone H2 (in words) [2]: proliferated equally; Proliferation of Ts clone H4 (in words) [3]: proliferated equally
3 | KLLAAGTHLGGT [Peptide 4] |  |  |  |  |  |  | .28 A450 | .27 A450 | Proliferation of clone L1 (in words) [7]: proliferates to a peptide contained almost entirely in peptide 4
4 | LDVLQMKEEDVL [Peptide 2] |  |  |  |  |  |  | .017 A450 | .019 A450 | 
5 | MSGALDVLQMKE [Peptide 1] |  |  |  |  |  |  | .018 A450 | .020 A450 | 
6 | QMKEEDVLKLLAA [Peptide 3] |  |  |  |  |  |  | .09 A450 | .07 A450 | Proliferation of clone L1 (in words) [7]: does react somewhat
7 | SPLRYVDIAIPC [Peptide 31-5] | .95 A450 | .016 A450 | .016 A450 | .91 A450 | .024 A450 | Tc & TH1 |  |  | Response of Th1 clone H3 (in words) [1]: strongest response; Proliferation of Tc clone L4 (in words) [4]: proliferated to peptides 31-5 and 31-6 equally
8 | TIALCNTDSPLR [Peptide 31-3] | .016 A450 | .015 A450 | .017 A450 | .016 A450 | .90 A450 | Tc |  |  | Proliferative response of Tc clone L5 (in words) [5]: equal proliferative response
9 | VNLPTIALCNTD [Peptide 31-2] | .015 A450 | .22 A450 | .24 A450 | .018 A450 | .016 A450 | Ts |  |  | Proliferation of Ts clone H2 (in words) [2]: proliferated equally; Proliferation of Ts clone H4 (in words) [3]: proliferated equally
10 | YVDIAIPCNNKG [Peptide 31-6] | .03 A450 | .015 A450 | .016 A450 | .90 A450 | .015 A450 | Tc |  |  | Proliferation of Tc clone L4 (in words) [4]: proliferated to peptides 31-5 and 31-6 equally
11 | iLRP truncated protein 13: truncated iLRP protein, a.a.'s 242-295; negative control | .015 A450 | .017 A450 | .018 A450 | .017 A450 | .016 A450 |  | .016 A450 | .014 A450 | BUdR incorporation (A450), clone H3 (Th1) [1, 8]: .017 A450; BUdR incorporation (A450), clone H2 (Ts) [2, 8]: .015 A450; BUdR incorporation (A450), clone H4 (Ts) [3, 8]: .016 A450; BUdR incorporation (A450), clone L4 (Tc) [4, 8]: .017 A450; BUdR incorporation (A450), clone L5 (Tc) [5, 8]: .015 A450
